Holding throughout (format): in vivo
Data set [1] concerns green peach aphid (Myzus persicae). The data set is described as follows: Myzus persicae test, spray application on bell pepper plants. The source says:
(§1) The expected activity of a given combination of two active compounds can be calculated as follows (cf. Colby, S. R., “Calculating Synergistic and Antagonistic Responses of Herbicide Combinations”, Weeds 15, pages 20-22, 1967):
(§2) • X is the kill rate expressed in % of the untreated control when employing active compound A at an application rate of m ppm, • Y is the kill rate expressed in % of the untreated control when employing active compound B at an application rate of n ppm, • E is the kill rate expressed in % of the untreated control when using the active compounds A and B at application rates of m and n ppm,
(§3) If the actual insecticidal kill rate exceeds the calculated value, the kill of the combination is superadditive, i.e. a synergistic effect is present. In this case, the actually observed kill rate must exceed the value calculated using the above formula for the expected kill rate (E).
(§4) Adjuvant: rapeseed oil methyl ester (0.1% of a.i./l)
To prepare a suitable application solution, 1 part by weight of formulation is mixed with the appropriate amount of water and the adjuvant and the concentrate is diluted with water to the desired concentration.
Bell pepper plants (Capsicum sativum) which are heavily infested by the green peach aphid (Myzus persicae) are sprayed to runoff point with the desired concentration of the application solution.
After the desired period of time, the kill in % is determined. 100% means that all aphids have been killed; 0% means that none of the aphids have been killed. The determined kill rates are entered in Colby's formula.

Data set [2] has as its system grain aphid (Metopolophium dirhodum). In words: Metopolophium dirhodum test, spray application on barley plants.
From the text: as §1, §2, §3, §4
(§5) To prepare a suitable application solution, 1 part by weight of formulation is mixed with the appropriate amount of water and the adjuvant and the concentrate is diluted with water to the desired concentration. […]
(§6) After the desired period of time, the kill in % is determined. […] The determined kill rates are entered in Colby's formula.

A further data set relates to winter barley. In words: Safener test after spraying: plant damage to barley (greenhouse). Conditions: 100 g of a.i./ha. As for the experimental part:
(§7) Method: Safener test after spraying
(§8) Solvent: 7 parts by weight of DMF
(§9) Emulsifier: 2 parts by weight of alkylaryl polyglycol ether
(§10) To produce a suitable preparation of active compound, 1 part by weight of active compound is mixed with the stated amounts of solvent and emulsifier, and the concentrate is diluted with tap water to the desired concentration. The desired amount of safener (in the case of mefenpyr-diethyl as WP 20) is mixed into the water used for dilution. Furthermore, 2 g of a.i./l of rapeseed oil methyl ester 500 EW are added. Leaves of winter barley at the 2-leaf stage which are infested by the bird cherry-oat aphid (Rhopalosiphum padi) are treated with the desired active compound and safener concentrations using a spray boom, the water application rate being […]. Per variant, the test is carried out at least twice. Evaluation is carried out after 7 d and/or 14 d by assessing the plant damage in % and the kill of the grain aphids in % compared to the untreated control. 100% damage means that the plant has died, and 0% means no damage. 100% effect on the grain aphids means that all aphids have been killed; 0% means that none of the aphids have been killed.
(§11) Results for greenhouse trials with safener after spraying against Rhopalosiphum padi on summer barley/winter barley

For data set [3], the system named is bird cherry-oat aphid (Rhopalosiphum padi). The data set is described as follows: Safener test after spraying: kill of aphids on barley (greenhouse). To be noted: 100 g of a.i./ha, barley at 2-leaf stage, spray boom. As to the method: as §7, §8, §9, §10, §11
The test system of data set [4] is cotton aphid (Aphis gossypii). In words: Aphis gossypii test, spray application on cotton plants. Conditions: 100 ppm.
From the text: as §1, §2, §3, §4, §5, §6

Consider `CC1(C)OC(c2ccco2)CN1C(=O)C(Cl)Cl` (centres unmarked) [Furilazole a.i., 3-dichloroacetyl-5-(2-furanyl)-2,2-dimethyl-oxazolidine], for which, in data set [1] (50 ppm), the “Kill rate in % after 7 d, found” value is given as 0%.

Take `Clc1cc(Cl)nc(-c2ccccc2)n1` [Fenclorim a.i., 4,6-dichloro-2-phenyl-pyrimidine]: the “Kill rate in % after 7 d, found” value in data set [1] (50 ppm) and in data set [2] (25 ppm) was 0% each time.

As for `CCOC(=O)C1=NN(c2ccc(Cl)cc2Cl)C(C)(C(=O)OCC)C1` (centres unmarked) [mefenpyr-diethyl, diethyl 1-(2,4-dichloro-phenyl)-4,5-dihydro-5-methyl-1H-pyrazole-3,5-dicarboxylate], the “Damage to new growth (%) 7 d” value with winter barley (7 d) turned out to be 0%. The “Damage (%) 7 d” value with winter barley (7 d, 100% = plant has died) is reported as 0%. Also, the “Damage to new growth (%) 14 d” value in the data set with winter barley (14 d) is listed as 0%. The “Damage (%) 14 d” value with winter barley (14 d, 100% = plant has died) worked out at 0%. For the same compound, in data set [3], the “Kill (%) 7 d” value is listed as 0%.

For the compound `C=CCN(CC=C)C(=O)C(Cl)Cl` [Dichlormid a.i., 2,2-dichloro-N,N-di-2-propenyl-acetamide], the “Kill rate in % after 7 d, found” value in data set [4], in data set [1] (100 ppm) and in data set [2] (100 ppm) was 0% throughout.
